≈ marks a conversion by molar mass, not a printed value.
Legend:
Type in all cases: functional
Bacillus cereus = assay: Antibacterial activity against Bacillus cereus ATCC 10702
[1] = tested on: Staphylococcus epidermidis; assay: Antibacterial activity against Staphylococcus epidermidis ATCC 12228
Escherichia coli = assay: Antibacterial activity against Escherichia coli ATCC 25922

| SMILES | MIC (Bacillus cereus) [µg/mL] | MIC [1] [µg/mL] | MIC (Escherichia coli) [µg/mL] |
| --- | --- | --- | --- |
| C[C@@H]1CC=C2[C@@H](CC[C@H]3C(C)(C)[C@H](O)CC[C@@]23C)[C@]1(C)Cc1cc(C(=O)O)ccc1O [NOSCOMIN] | 32 (≈ 75 µM) | 8 (≈ 18.8 µM) | 128 (≈ 300 µM) |
| O=C(N[C@H](CO)[C@H](O)c1ccc([N+](=O)[O-])cc1)C(Cl)Cl [CHLORAMPHENICOL] | 8 (≈ 24.8 µM) | 4 (≈ 12.4 µM) | 64 (≈ 198 µM) |

From ChEMBL document CHEMBL1141817, “A novel extracellular diterpenoid with antibacterial activity from the cyanobacterium Nostoc commune” (1999)
